Results: patent US20240002374A1, “5-MEMBERED HETEROARYLAMINOSULFONAMIDES FOR TREATING CONDITIONS MEDIATED BY DEFICIENT CFTR ACTIVITY” (Genzyme Corporation, priority 2019, published 2024)

Biological target: T1, CFTR (primary human bronchial epithelial cells from a ΔF508 homozygous CF donor, CF-HBE cells) (Homo sapiens, UniProt P13569, DEL508-508)
T1 construct: Primary human bronchial epithelial cells from a ΔF508 homozygous CF donor; host or cells: primary human bronchial epithelial cells (CF-HBE) from a ΔF508 homozygous CF donor
T1 sequence (P13569 with tags, fused parts or gaps DEL508-508): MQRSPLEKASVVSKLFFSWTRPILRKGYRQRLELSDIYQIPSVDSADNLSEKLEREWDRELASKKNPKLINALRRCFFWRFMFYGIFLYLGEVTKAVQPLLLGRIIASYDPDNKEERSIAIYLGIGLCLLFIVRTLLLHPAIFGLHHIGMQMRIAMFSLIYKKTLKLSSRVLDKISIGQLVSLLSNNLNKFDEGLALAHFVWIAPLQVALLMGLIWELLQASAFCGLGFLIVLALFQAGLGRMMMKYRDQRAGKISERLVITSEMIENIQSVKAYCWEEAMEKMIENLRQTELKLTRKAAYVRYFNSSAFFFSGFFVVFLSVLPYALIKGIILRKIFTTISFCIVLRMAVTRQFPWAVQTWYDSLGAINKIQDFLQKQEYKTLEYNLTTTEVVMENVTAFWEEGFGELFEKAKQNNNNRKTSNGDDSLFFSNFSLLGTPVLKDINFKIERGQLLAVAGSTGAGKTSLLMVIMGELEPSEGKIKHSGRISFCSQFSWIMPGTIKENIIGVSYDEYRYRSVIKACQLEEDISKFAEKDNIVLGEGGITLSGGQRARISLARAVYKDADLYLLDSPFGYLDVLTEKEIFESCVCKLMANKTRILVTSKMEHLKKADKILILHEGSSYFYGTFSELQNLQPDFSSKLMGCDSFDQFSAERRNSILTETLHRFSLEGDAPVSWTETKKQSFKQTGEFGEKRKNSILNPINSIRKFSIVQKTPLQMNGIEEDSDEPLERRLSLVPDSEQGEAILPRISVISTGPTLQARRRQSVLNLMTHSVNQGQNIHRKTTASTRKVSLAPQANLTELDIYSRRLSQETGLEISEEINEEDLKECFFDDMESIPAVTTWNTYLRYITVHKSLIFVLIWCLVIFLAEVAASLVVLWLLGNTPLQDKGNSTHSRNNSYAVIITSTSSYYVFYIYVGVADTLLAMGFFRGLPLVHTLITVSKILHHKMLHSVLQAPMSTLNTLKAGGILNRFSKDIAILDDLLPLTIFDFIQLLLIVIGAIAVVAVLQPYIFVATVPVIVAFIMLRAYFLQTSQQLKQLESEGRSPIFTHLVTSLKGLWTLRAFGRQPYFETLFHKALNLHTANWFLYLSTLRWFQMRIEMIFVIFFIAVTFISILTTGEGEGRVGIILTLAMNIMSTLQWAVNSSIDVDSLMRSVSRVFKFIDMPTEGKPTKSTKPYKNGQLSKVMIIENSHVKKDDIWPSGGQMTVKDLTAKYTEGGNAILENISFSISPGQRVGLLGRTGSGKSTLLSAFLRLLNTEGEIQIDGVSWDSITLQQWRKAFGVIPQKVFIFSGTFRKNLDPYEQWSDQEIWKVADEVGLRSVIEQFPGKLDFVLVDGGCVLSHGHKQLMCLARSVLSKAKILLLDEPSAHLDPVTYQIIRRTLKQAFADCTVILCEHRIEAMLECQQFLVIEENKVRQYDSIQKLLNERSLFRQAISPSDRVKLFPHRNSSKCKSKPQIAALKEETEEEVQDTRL
Test: TECC24 recording of CFTR-mediated transepithelial chloride transport (TECC24 AUC fold over DMSO @ 3 μM)
Format: cell-based
Details: 3 uM test agent; CF-HBE cells (ΔF508 homozygous) incubated 48 h; ratio of test agent AUC of forskolin-stimulated IEQ to vehicle (DMSO) AUC
Experimental: Example 510: TECC24 AUC Fold Over DMSO @ 3 μM
The effects of a test agent on CFTR-mediated transepithelial chloride transport was measured using TECC24 recording analysis. Test agents were solubilized in DMSO. Solubilized test agents were mixed with incubation medium containing DMEM/F12, Ultroser G (2%; Crescent Chemical, catalog #67042), Hyclone Fetal Clone H (2%; GE Healthcare, catalog #SH30066.02), bovine brain extract (0.25%; Lonza, catalog #CC-4098), insulin (2.5 μg/mL), IL-13 (10 ng/mL), hydrocortisone (20 nM), transferrin (2.5 μg/mL), triiodothyronine (500 nM), ethanolamine (250 nM), epinephrine (1.5 μM), phosphoethanolamine (250 nM), and retinoic acid (10 nM). Primary human bronchial epithelial cells from a ΔF508 homozygous CF donor (CF-HBE cells; from University of North Carolina Cystic Fibrosis Tissue Procurement Center), grown on Transwell HTS 24-well cell culture inserts (Costar, catalog #3378), were exposed to test agents or controls dissolved in incubation medium. The CF-HBE cells were cultured at 36.5° C. for 48 h before TECC24 recordings were performed in the presence or absence of test agent, a positive control or vehicle (DMSO).
Following incubation, the transwell cell culture inserts containing the test agent or control-treated CF-HBE cells were loaded onto a TECC24 apparatus (TECC v7 or MTECC v2; EP Design) to record the transepithelial voltage (VT) and resistance (TEER) using 4 AgCl electrodes per well configured in current-clamp mode. The apical and basolateral bath solutions both contained (in mM) 140 NaCl, 5 KCl, 2 CaCl2), 1 MgCl2, 10 Hepes, and 10 glucose (adjusted to pH 7.4 with NaOH) […]. To inhibit basal Na+ absorption, the ENaC inhibitor benzamil (10 μM) was added to the bath. Then, the adenylate cyclase activator, forskolin (10 μM), was added to the bath to activate CFTR. The forskolin-stimulated Cl− transport was halted by addition of bumetanide (20 μM), an inhibitor of the basolateral chloride co-transporter NKCC1, to the bath to confirm that the detected signal was chloride dependent. VT and TEER recordings were digitally acquired at routine intervals using TECC or MTECC software (EP Design). VT and TEER were transformed into equivalent transepithelial Cl− current (IEQ), and the Area Under the Curve (AUC) of the IEQ time course between forskolin and bumetanide addition is generated using Excel (Microsoft). Efficacy is expressed as the ratio of the test agent AUC divided by vehicle AUC. EC50s based on AUC are generated using the non-linear regression log(agonist) vs. response function in Prism software (GraphPad) with Hill Slope fixed=1.
If a test agent increased the AUC of the forskolin-stimulated IEQ relative to vehicle in CF-HBE cells, and this increase was inhibited by bumetanide, then the test agent was considered a CFTR corrector.

| SMILES | TECC AUC vs. DMSO @ 3 uM |
| --- | --- |
| Cc1cccc(C(F)(F)F)c1-c1nc(NS(=O)(=O)c2cccc(N)c2)sc1-c1cccc(OCCC(C)(C)C)c1 [Example 14, 3-Amino-N-(5-(3-(3,3-dimethylbutoxy)phenyl)-4-(2-methyl-6-(trifluoromethyl)phenyl)thiazol-2-yl)benzenesulfonamide] | A (“A” refers to AUC > 5) |
| Cc1nn(C)cc1S(=O)(=O)Nc1nc(-c2ccccc2C(F)(F)F)c(-c2cccc([C@H]3CC[C@@H](OC(F)(F)F)C3)c2)s1 (single isomer, unassigned) [Example 45A1] | B (“B” refers to AUC 2-5) |
| CC(C)c1ccccc1-c1nc(NS(=O)(=O)c2cccc(N)n2)sc1N1CCOC2(CCC(C)(C)C2)C1 (stereo not shown) [Example 349, 6-amino-N-[5-(3,3-dimethyl-6-oxa-9-azaspiro[4.5]decan-9-yl)-4-(2-propan-2-ylphenyl)-1,3-thiazol-2-yl]pyridine-2-sulfonamide] | A (“A” refers to AUC > 5) |
| Cc1cccc(C)c1-c1nc(NS(=O)(=O)c2cccnc2N)sc1-c1cc(F)cc(OCCC(C)(C)C)c1 [Example 35, 2-Amino-N-(5-(3-(3,3-dimethylbutoxy)-5-fluorophenyl)-4-(2,6-dimethylphenyl)thiazol-2-yl)pyridine-3-sulfonamide] | A (“A” refers to AUC > 5) |
| CC(C)c1ccccc1-c1nc(NS(=O)(=O)c2cccc(N)c2)sc1-c1cccc(OCCC(C)(C)C)c1 [Example 18, 3-Amino-N-(5-(3-(3,3-dimethylbutoxy)phenyl)-4-(2-isopropylphenyl)thiazol-2-yl)benzenesulfonamide] | A (“A” refers to AUC > 5) |
| Cc1nn(C)cc1S(=O)(=O)Nc1nc(-c2ccccc2C(C)C)c(-c2cccc([C@H]3CC[C@@H](OC(F)(F)F)C3)c2)s1 [Example 46A1, N-(4-(2-Isopropylphenyl)-5-(3-((1S,3R)-3-(trifluoromethoxy)cyclopentyl)phenyl)thiazol-2-yl)-1,3-dimethyl-1H-pyrazole-4-sulfonamide] | C (“C” refers to AUC < 2) |
| CC(C)c1ccccc1-c1nc(NS(=O)(=O)c2ccnc(N)c2)sc1-c1cccc(OCCC(C)(C)C)c1 [Example 362, 2-amino-N-[5-[3-(3,3-dimethylbutoxy)phenyl]-4-(2-propan-2-ylphenyl)-1,3-thiazol-2-yl]pyridine-4-sulfonamide] | A (“A” refers to AUC > 5) |
| CC(C)c1ccccc1-c1nc(NS(=O)(=O)c2cccc(N[C@H](C)C(F)(F)F)c2)sc1-c1cccc(OCC(C)(C)C)c1 [Example 429, N-[5-[3-(2,2-dimethylpropoxy)phenyl]-4-(2-propan-2-ylphenyl)-1,3-thiazol-2-yl]-3-[[(2R)-1,1,1-trifluoropropan-2-yl]amino]benzenesulfonamide] | A (“A” refers to AUC > 5) |
| O=S(=O)(Nc1nc(-c2ccccc2C(F)(F)F)c(-c2cccc([C@H]3CC[C@H](OC(F)(F)F)C3)c2)s1)c1ccccc1 (single isomer, unassigned) [Example 44A2] | C (“C” refers to AUC < 2) |
| Cc1nn(C)cc1S(=O)(=O)Nc1nc(-c2ccccc2C(C)C)c(-c2cccc([C@@H]3CC[C@@H](OC(F)(F)F)C3)c2)s1 [Example 46B2, N-(4-(2-Isopropylphenyl)-5-(3-((1R,3R)-3-(trifluoromethoxy)cyclopentyl)phenyl)thiazol-2-yl)-1,3-dimethyl-1H-pyrazole-4-sulfonamide] | C (“C” refers to AUC < 2) |
| CC(C)c1ccccc1-c1nc(NS(=O)(=O)c2cccc(NC3CC(C)(O)C3)c2)sc1-c1ccc(F)c(OCC(F)(F)C(C)(C)C)c1 (stereo not shown) [Example 24, N-(5-(3-(2,2-Difluoro-3,3-dimethylbutoxy)-4-fluorophenyl)-4-(2-isopropylphenyl)thiazol-2-yl)-3-((3-hydroxy-3-methylcyclobutyl)amino)benzenesulfonamide] | A (“A” refers to AUC > 5) |
| Cc1cccc(C)c1-c1nc(NS(=O)(=O)c2cccc(N)c2F)sc1N1CCOC2(CCC(C)(C)C2)C1 (stereo not shown) [Example 38, 3-Amino-N-(5-(2,2-dimethyl-6-oxa-9-azaspiro[4.5]decan-9-yl)-4-(2,6-dimethylphenyl)thiazol-2-yl)-2-fluorobenzenesulfonamide] | A (“A” refers to AUC > 5) |
| CC(C)c1ccccc1-c1nc(NS(=O)(=O)c2cccc(N)c2)sc1-c1cccc(OCC(F)(F)C(C)(C)C)c1 [Example 490, 3-amino-N-[5-[3-(2,2-difluoro-3,3-dimethylbutoxy)phenyl]-4-(2-propan-2-ylphenyl)-1,3-thiazol-2-yl]benzenesulfonamide] | B (“B” refers to AUC 2-5) |
| CC(C)c1ccccc1-c1nc(NS(=O)(=O)c2cccc(N[C@H](C(=O)O)C(C)(C)C)n2)sc1-c1cccc(OCCC(C)(C)C)c1 [Example 36, (S)-2-((6-(N-(5-(3-(3,3-Dimethylbutoxy)phenyl)-4-(2-isopropylphenyl)thiazol-2-yl)sulfamoyl)pyridin-2-yl)amino)-3,3-dimethylbutanoic Acid] | A (“A” refers to AUC > 5) |
| Nc1cccc(S(=O)(=O)Nc2nc(-c3ccccc3C(F)(F)F)c(-c3cccc([C@@H]4CC[C@H](OC(F)(F)F)C4)c3)s2)c1F [Example 47B1, 3-Amino-2-fluoro-N-(5-(3-((1R,3S)-3-(trifluoromethoxy)cyclopentyl)phenyl)-4-(2-(trifluoromethyl)phenyl)thiazol-2-yl)benzenesulfonamide] | A (“A” refers to AUC > 5) |
| CC(C)c1ccccc1-c1nc(NS(=O)(=O)c2cc(N)ccc2F)sc1-c1ccc(F)c(OCC(F)(F)C(C)(C)C)c1 [Example 26, 5-Amino-N-(5-(3-(2,2-difluoro-3,3-dimethylbutoxy)-4-fluorophenyl)-4-(2-isopropylphenyl)thiazol-2-yl)-2-fluorobenzenesulfonamide] | A (“A” refers to AUC > 5) |
| CC(C)Oc1ccccc1-c1nc(NS(=O)(=O)c2ccccc2)sc1-c1cccc(OCC(C)(C)C)c1 [Example 4, N-(4-(2-Isopropoxyphenyl)-5-(3-(neopentyloxy)phenyl)thiazol-2-yl)benzenesulfonamide] | B (“B” refers to AUC 2-5) |
| CC(C)(C)CCOc1cccc(-c2sc(NS(=O)(=O)c3cccc(NC(=O)C4(F)CC4)c3)nc2-c2ccccc2C(F)(F)F)c1 [Example 20, N-(3-(N-(5-(3-(3,3-Dimethylbutoxy)phenyl)-4-(2-(trifluoromethyl)phenyl)thiazol-2-yl)sulfamoyl)phenyl)-1-fluorocyclopropane-1-carboxamide] | A (“A” refers to AUC > 5) |
| Cc1cccc(C(F)(F)F)c1-c1nc(NS(=O)(=O)c2ccccc2)sc1-c1cc(F)cc(OCCC(C)(C)C)c1 [Example 2, N-(5-(3-(3,3-Dimethylbutoxy)-5-fluorophenyl)-4-(2-methyl-6-(trifluoromethyl)phenyl)thiazol-2-yl)benzenesulfonamide] | A (“A” refers to AUC > 5) |
| Cc1cccc(C)c1-c1nc(NS(=O)(=O)c2cccc([S+](C)[O-])c2)sc1-c1cc(F)cc(OCCC(C)(C)C)c1 (stereo not shown) [Example 259, N-[5-[3-(3,3-dimethylbutoxy)-5-fluorophenyl]-4-(2,6-dimethylphenyl)-1,3-thiazol-2-yl]-3-methylsulfinylbenzenesulfonamide] | B (“B” refers to AUC 2-5) |
| O=S(=O)(Nc1nc(-c2ccccc2C(F)(F)F)c(-c2cccc([C@@H]3CC[C@H](OC(F)(F)F)C3)c2)s1)c1ccccc1 (single isomer, unassigned) [Example 44B2] | C (“C” refers to AUC < 2) |
| O=S(=O)(Nc1nc(-c2ccccc2C(F)(F)F)c(-c2cccc([C@@H]3CC[C@@H](OC(F)(F)F)C3)c2)s1)c1ccccc1 (single isomer, unassigned) [Example 44B1] | B (“B” refers to AUC 2-5) |
